In brackets after ≈: the same amount, converted by molar mass.
Tests used:
[1] = system: Escherichia coli (E. coli); assay: MIC testing, agar dilution method; assay type: cell-based; settings: 36.5 °C, 24–48 h
Excerpt: (§1) The synthesized pleuromutilin derivatives 3 and 4a–l, with tiamulin fumarate used a as reference drug, were screened for their in vitro antibacterial activity against Escherichia coli (E. coli), Staphylococcus aureus (S. aureus), Methicillin-resistant Staphylococcus aureus (MRSA), Staphylococcus vitulinus (S. vitulinus), Staphylococcus warneri (S. warneri), and Staphylococcus haemolyticus (S. haemolyticus). The antibacterial activities are reported in Table 1 as the minimum inhibitory concentration (MIC) using the agar dilution method. The MICs of the 13 new pleuromutilin derivatives in vitro against E. coli ranged from 10 to 80 μg/mL; against S. aureus, MRSA, S. vitulinus, S. warneri, and S. haemolyticus ranged from 0.156 to 40 μg/mL, respectively.
(§2) The MIC for the synthesized compounds (3 and 4a–l) and tiamulin fumarate used as a reference drug were determined using the agar dilution method according to the National Committee for Clinical Laboratory Standards (NCCLS). Tested compounds were dissolved in 25%–40% DMSO to a solution with a concentration of 1280 µg/mL, whereas tiamulin fumarate was directly dissolved in 10 mL of distilled water at the same concentration as the tested compounds. All the solutions were then diluted twofold with sterile water to provide 11 dilutions (final concentration is 0.625 µg/mL). A 2 mL volume of the 2-fold serial dilution of each test compound/drug was incorporated into 18 mL of hot Muellere-Hinton agar medium. Inoculums, including five Gram (+), S. aureus, MRSA, S. vitulinus, S. warneri, S. haemolyticus, and one Gram (−), E. coli were prepared from blood slants and adjusted to approximately 10^5–10^6 CFU/mL with sterile saline (0.90% NaCl). A 10 µL amount of bacterial suspension was spotted onto Muellere-Hinton agar plates containing serial dilutions of the compounds/drug. The plates were incubated at 36.5 °C for 24–48 h. The same procedure was repeated in triplicate.

[2] = system: Methicillin-resistant Staphylococcus aureus (MRSA); assay: MIC testing, agar dilution method; assay type: cell-based; settings: 36.5 °C, 24–48 h
Excerpt: as §1, §2

[3] = system: Staphylococcus aureus (S. aureus); assay: MIC testing, agar dilution method; assay type: cell-based; settings: 36.5 °C, 24–48 h
Excerpt: as §1, §2

[4] = system: Staphylococcus haemolyticus (S. haemolyticus); assay: MIC testing, agar dilution method; assay type: cell-based; settings: 36.5 °C, 24–48 h
Excerpt: as §1, §2

[5] = system: Staphylococcus vitulinus (S. vitulinus); assay: MIC testing, agar dilution method; assay type: cell-based; settings: Mammaliicoccus vitulinus, 36.5 °C, 24–48 h
Excerpt: as §1, §2

[6] = system: Staphylococcus warneri (S. warneri); assay: MIC testing, agar dilution method; assay type: cell-based; settings: 36.5 °C, 24–48 h
Excerpt: as §1, §2

E. coli = assay: Oxford cup assay, zone of inhibition; assay type: cell-based; settings: Escherichia coli
Method: (§3) The Oxford cup assays were carried out to evaluate the antibacterial activities against the above-mentioned six bacterial strains. The zones of inhibition for two concentrations (320 and 160 μg/mL) of the synthetic compounds and tiamulin fumarate were measured. The results of Oxford cup assay correspond with that obtained by agar dilution method (MICs) as a whole.
(§4) The procedure for Oxford cup assays was the same as that previously reported. Briefly, inoculums were prepared in 0.9% saline using McFarland standard and spread uniformly on nutrient agar plates. The 320 and 160 µg/mL of all the tested compounds were added individually into the Oxford cups that were placed at equal distances above the agar surfaces. The zone of inhibition for each concentration was measured after a 24–36 h incubation at 37 °C. The same procedure was repeated in triplicate.

MRSA = assay: Oxford cup assay, zone of inhibition; assay type: cell-based; settings: Staphylococcus aureus
Method: as §3, §4

S. aureus = assay: Oxford cup assay, zone of inhibition; assay type: cell-based; settings: Staphylococcus aureus
Method: as §3, §4

S. haemolyticus = assay: Oxford cup assay, zone of inhibition; assay type: cell-based; settings: Staphylococcus haemolyticus
Method: as §3, §4

S. warneri = assay: Oxford cup assay, zone of inhibition; assay type: cell-based; settings: Staphylococcus warneri
Method: as §3, §4

S. vitulinus = assay: Oxford cup assay, zone of inhibition; assay type: cell-based, Staphylococcus vitulinus; settings: Mammaliicoccus vitulinus
Method: as §3, §4

| Compound | MIC [1] | MIC [2] | MIC [3] | MIC [4] | MIC [5] | MIC [6] | zone of inhibition at 160 µg/mL (E. coli) | zone of inhibition at 320 µg/mL (E. coli) | zone of inhibition at 160 µg/mL (MRSA) | zone of inhibition at 320 µg/mL (MRSA) | zone of inhibition at 160 µg/mL (S. aureus) | zone of inhibition at 320 µg/mL (S. aureus) | zone of inhibition at 160 µg/mL (S. haemolyticus) | zone of inhibition at 320 µg/mL (S. haemolyticus) | zone of inhibition at 160 µg/mL (S. warneri) | zone of inhibition at 320 µg/mL (S. warneri) | zone of inhibition at 160 µg/mL (S. vitulinus) | zone of inhibition at 320 µg/mL (S. vitulinus) |
| --- | --- | --- | --- | --- | --- | --- | --- | --- | --- | --- | --- | --- | --- | --- | --- | --- | --- | --- |
| C=C[C@]1(C)C[C@@H](OC(=O)CSc2nc3ccc(NC(=O)c4ccccc4Cl)cc3[nH]2)[C@]2(C)[C@H](C)CC[C@]3(CCC(=O)[C@H]32)[C@@H](C)[C@@H]1O [Compound 4a, 14-O-((2-Chlorobenzamide-5-aminobenzimidazole-2-yl)thioacetyl) mutilin] | 40 µg/mL (≈ 60.2 µM) | 40 µg/mL (≈ 60.2 µM) | 40 µg/mL (≈ 60.2 µM) | 5 µg/mL (≈ 7.53 µM) | 40 µg/mL (≈ 60.2 µM) | 40 µg/mL (≈ 60.2 µM) | 0 mm | 11.3 mm | 15.9 mm | 20.2 mm | 9.02 mm | 12.4 mm | 20.4 mm | 24.9 mm | 21.6 mm | 22.4 mm | 13.8 mm | 19.2 mm |
| C=C[C@]1(C)C[C@@H](OC(=O)CSc2nc3ccc(NC(=O)c4cccc(Cl)c4)cc3[nH]2)[C@]2(C)[C@H](C)CC[C@]3(CCC(=O)[C@H]32)[C@@H](C)[C@@H]1O [Compound 4b, 14-O-((3-Chlorobenzamide-5-aminobenzimidazole-2-yl)thioacetyl) mutilin] | 80 µg/mL (≈ 120 µM) | 20 µg/mL (≈ 30.1 µM) | 40 µg/mL (≈ 60.2 µM) | 20 µg/mL (≈ 30.1 µM) | 10 µg/mL (≈ 15.1 µM) | 20 µg/mL (≈ 30.1 µM) | 10.4 mm | 0 mm | 17.3 mm | 21.7 mm | 12.3 mm | 15.8 mm | 20.3 mm | 20.4 mm | 16.5 mm | 19.5 mm | 20.5 mm | 23.8 mm |
| C=C[C@]1(C)C[C@@H](OC(=O)CSc2nc3ccc(NC(=O)c4ccc(Cl)cc4)cc3[nH]2)[C@]2(C)[C@H](C)CC[C@]3(CCC(=O)[C@H]32)[C@@H](C)[C@@H]1O [Compound 4c, 14-O-((4-Chlorobenzamide-5-aminobenzimidazole-2-yl)thioacetyl) mutilin] | 40 µg/mL (≈ 60.2 µM) | 40 µg/mL (≈ 60.2 µM) | 40 µg/mL (≈ 60.2 µM) | 40 µg/mL (≈ 60.2 µM) | 40 µg/mL (≈ 60.2 µM) | 40 µg/mL (≈ 60.2 µM) | 17.2 mm | 17.7 mm | 14.6 mm | 15.5 mm | 14.3 mm | 16.5 mm | 16.9 mm | 20.9 mm | 19.2 mm | 22.2 mm | 20.5 mm | 21.8 mm |
| C=C[C@]1(C)C[C@@H](OC(=O)CSc2nc3ccc(NC(=O)c4ccccc4C)cc3[nH]2)[C@]2(C)[C@H](C)CC[C@]3(CCC(=O)[C@H]32)[C@@H](C)[C@@H]1O [Compound 4d, 14-O-((2-Methylbenzamide-5-aminobenzimidazole-2-yl)thioacetyl) mutilin] | 80 µg/mL (≈ 124 µM) | 40 µg/mL (≈ 62.1 µM) | 10 µg/mL (≈ 15.5 µM) | 40 µg/mL (≈ 62.1 µM) | 40 µg/mL (≈ 62.1 µM) | 40 µg/mL (≈ 62.1 µM) | 0 mm | 0 mm | 16.3 mm | 19.7 mm | 14.7 mm | 17.8 mm | 17.4 mm | 18.4 mm | 20.6 mm | 22.3 mm | 18.2 mm | 19.1 mm |
| C=C[C@]1(C)C[C@@H](OC(=O)CSc2nc3ccc(NC(=O)c4cccc(C)c4)cc3[nH]2)[C@]2(C)[C@H](C)CC[C@]3(CCC(=O)[C@H]32)[C@@H](C)[C@@H]1O [Compound 4e, 14-O-((3-Methylbenzamide-5-aminobenzimidazole-2-yl)thioacetyl) mutilin] | 80 µg/mL (≈ 124 µM) | 40 µg/mL (≈ 62.1 µM) | 40 µg/mL (≈ 62.1 µM) | 40 µg/mL (≈ 62.1 µM) | 40 µg/mL (≈ 62.1 µM) | 40 µg/mL (≈ 62.1 µM) | 0 mm | 0 mm | 25.6 mm | 27.8 mm | 17.9 mm | 19.4 mm | 18.3 mm | 20.8 mm | 20.8 mm | 21.5 mm | 18.1 mm | 20.3 mm |
| C=C[C@]1(C)C[C@@H](OC(=O)CSc2nc3ccc(NC(=O)c4ccc(C)cc4)cc3[nH]2)[C@]2(C)[C@H](C)CC[C@]3(CCC(=O)[C@H]32)[C@@H](C)[C@@H]1O [Compound 4f, 14-O-((4-Methylbenzamide-5-aminobenzimidazole-2-yl)thioacetyl) mutilin] | 80 µg/mL (≈ 124 µM) | 40 µg/mL (≈ 62.1 µM) | 40 µg/mL (≈ 62.1 µM) | 40 µg/mL (≈ 62.1 µM) | 40 µg/mL (≈ 62.1 µM) | 20 µg/mL (≈ 31.1 µM) | 0 mm | 8.64 mm | 14.1 mm | 17.3 mm | 16.7 mm | 17.8 mm | 16.2 mm | 20.7 mm | 22.9 mm | 22.9 mm | 14 mm | 15.1 mm |
| C=C[C@]1(C)C[C@@H](OC(=O)CSc2nc3ccc(NC(=O)c4ccccc4OC)cc3[nH]2)[C@]2(C)[C@H](C)CC[C@]3(CCC(=O)[C@H]32)[C@@H](C)[C@@H]1O [Compound 4g, 14-O-((2-Methoxybenzamide-5-aminobenzimidazole-2-yl)thioacetyl) mutilin] | 80 µg/mL (≈ 121 µM) | 40 µg/mL (≈ 60.6 µM) | 40 µg/mL (≈ 60.6 µM) | 10 µg/mL (≈ 15.2 µM) | 40 µg/mL (≈ 60.6 µM) | 40 µg/mL (≈ 60.6 µM) | 0 mm | 9.38 mm | 19.1 mm | 21.5 mm | 13.7 mm | 18.3 mm | 24.3 mm | 25.6 mm | 18.5 mm | 20.1 mm | 16.2 mm | 18 mm |
| C=C[C@]1(C)C[C@@H](OC(=O)CSc2nc3ccc(NC(=O)c4cccc(OC)c4)cc3[nH]2)[C@]2(C)[C@H](C)CC[C@]3(CCC(=O)[C@H]32)[C@@H](C)[C@@H]1O [Compound 4h, 14-O-((3-Methoxybenzamide-5-aminobenzimidazole-2-yl)thioacetyl) mutilin] | 40 µg/mL (≈ 60.6 µM) | 40 µg/mL (≈ 60.6 µM) | 40 µg/mL (≈ 60.6 µM) | 10 µg/mL (≈ 15.2 µM) | 40 µg/mL (≈ 60.6 µM) | 40 µg/mL (≈ 60.6 µM) | 15.3 mm | 18 mm | 16.3 mm | 19.7 mm | 15.9 mm | 18.7 mm | 25.4 mm | 28.4 mm | 17.9 mm | 19.8 mm | 19.8 mm | 21.7 mm |
